Laboratory results as given in ChEMBL document CHEMBL1201862, “PubChem BioAssay data set” (2004).
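Cells were grown in 96-well plates and exposed to each compound for 48 hours at five concentrations; endpoints were interpolated linearly between bracketing concentrations, or set to the highest concentration if not reached. GI50 = concentration required for 50% inhibition of growth.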 The source made the active and inactive calls. Rule as the data show it: active = GI50 up to about 1.1 µM and inactive = higher.

Assays:
Test in all cases: NCI anticancer screen, dose series, 48 h
SF-539 = tested on: SF-539
ACHN = tested on: ACHN
CAKI-1 = tested on: CAKI-1
MCF7 = tested on: MCF7
Hs-578T = tested on: Hs-578T
MDA-N = tested on: MDA-N
A549 = tested on: A549
M14 = tested on: M14
786-0 = tested on: 786-0
NCI/ADR-RES = tested on: NCI/ADR-RES
OVCAR-4 = tested on: OVCAR-4
HOP-92 = tested on: HOP-92
COLO 205 = tested on: COLO 205
SK-MEL-28 = tested on: SK-MEL-28
UACC-257 = tested on: UACC-257
NCI-H522 = tested on: NCI-H522
SR = tested on: SR
PC-3 = tested on: PC-3
SK-MEL-5 = tested on: SK-MEL-5
SW-620 = tested on: SW-620

Compound | GI50 (SF-539) | GI50 (ACHN) | GI50 (CAKI-1) | GI50 (MCF7) | GI50 (Hs-578T) | GI50 (MDA-N) | GI50 (A549) | GI50 (M14) | GI50 (786-0) | GI50 (NCI/ADR-RES) | GI50 (OVCAR-4) | GI50 (HOP-92) | GI50 (COLO 205) | GI50 (SK-MEL-28) | GI50 (UACC-257) | GI50 (NCI-H522) | GI50 (SR) | GI50 (PC-3) | GI50 (SK-MEL-5) | GI50 (SW-620)
Nc1ncnc2c1ncn2[C@@H]1O[C@H](C(=O)O)[C@@H](O)[C@H]1O [5'-CARBOXY ADENOSINE] | > 100 µM (inactive) | > 100 µM (inactive) | > 100 µM (inactive) | > 100 µM (inactive) | > 100 µM (inactive) | > 100 µM (inactive) | > 100 µM (inactive) | > 100 µM (inactive) | > 100 µM (inactive) | > 100 µM (inactive) | > 100 µM (inactive) | > 100 µM (inactive) | > 100 µM (inactive) | > 100 µM (inactive) | > 100 µM (inactive) | > 100 µM (inactive) | > 100 µM (inactive) | > 100 µM (inactive) | > 100 µM (inactive) | > 100 µM (inactive)
COc1cc(C2c3cc4c(cc3OC(N3CCCCC3)C2C)OCO4)cc(OC)c1O (stereo not given) | 9.64 µM (inactive) | 8.57 µM (inactive) | 12 µM (inactive) | 5.33 µM (inactive) | 7.53 µM (inactive) | 2.14 µM (inactive) | 10.7 µM (inactive) | 9.42 µM (inactive) | 8.77 µM (inactive) | 4.57 µM (inactive) | 17.3 µM (inactive) | 15 µM (inactive) | 17.7 µM (inactive) | 9.89 µM (inactive) | 13.4 µM (inactive) | 3.67 µM (inactive) | 4.82 µM (inactive) | 7.91 µM (inactive) | 5.7 µM (inactive) | 5.31 µM (inactive)
O=C(O)c1[nH]c2c([N+](=O)[O-])cc([N+](=O)[O-])cc2c1C(=O)O | > 100 µM (inactive) | > 100 µM (inactive) | > 100 µM (inactive) | > 100 µM (inactive) | > 100 µM (inactive) | 29.9 µM (inactive) | > 100 µM (inactive) | 56.1 µM (inactive) | > 100 µM (inactive) | > 100 µM (inactive) | > 100 µM (inactive) | > 100 µM (inactive) | > 100 µM (inactive) | > 100 µM (inactive) | > 100 µM (inactive) | 78.9 µM (inactive) | 75.5 µM (inactive) | > 100 µM (inactive) | > 100 µM (inactive) | > 100 µM (inactive)
O=C1C=C(Br)C(=O)C12CCc1ccccc12 (stereo not given) | 17.4 µM (inactive) | 11.5 µM (inactive) | 6.47 µM (inactive) | 16.5 µM (inactive) | 35.3 µM (inactive) | 16.5 µM (inactive) | 23.5 µM (inactive) | 12.4 µM (inactive) | 11.9 µM (inactive) | 27.7 µM (inactive) | 24.7 µM (inactive) | 13.5 µM (inactive) | 4.05 µM (inactive) | 12.2 µM (inactive) | 19.4 µM (inactive) | 3.36 µM (inactive) | 3.27 µM (inactive) | 17.7 µM (inactive) | 19.7 µM (inactive) | 4.4 µM (inactive)
C/C(=N\N=C(/S)N(C)C)c1cccc[n+]1[O-] | 47.4 µM (inactive) | 38.2 µM (inactive) | 32.4 µM (inactive) | 8.05 µM (inactive) | 92.9 µM (inactive) | 95.1 µM (inactive) | 59.7 µM (inactive) | 25.9 µM (inactive) | 28.6 µM (inactive) | 2.05 µM (inactive) | 46.8 µM (inactive) | 22.3 µM (inactive) | 0.82 µM (active) | 73.5 µM (inactive) | 4.38 µM (inactive) | 4.05 µM (inactive) | 1.23 µM (inactive) | 15.4 µM (inactive) | 27.7 µM (inactive) | 22.3 µM (inactive)
CCCCON1C[C@H](OC(C)=O)C(OC(C)=O)[C@H](OC(C)=O)C1 (stereo not given in full) | > 100 µM (inactive) | > 100 µM (inactive) | > 100 µM (inactive) | > 100 µM (inactive) | > 100 µM (inactive) | > 100 µM (inactive) | > 100 µM (inactive) | > 100 µM (inactive) | > 100 µM (inactive) | > 100 µM (inactive) | 7.14 µM (inactive) | > 100 µM (inactive) | > 100 µM (inactive) | > 100 µM (inactive) | > 100 µM (inactive) | > 100 µM (inactive) | > 100 µM (inactive) | > 100 µM (inactive) | > 100 µM (inactive) | > 10 µM (inactive)
CC[C@@H](/C=C\CCC1(C[C@@H](N)CCC=C(C)C)OCCO1)O[Si](C(C)C)(C(C)C)C(C)C | 17.7 µM (inactive) | 18 µM (inactive) | 18.8 µM (inactive) | 16.3 µM (inactive) | 26 µM (inactive) | 16.4 µM (inactive) | 18.2 µM (inactive) | 18.5 µM (inactive) | 17.4 µM (inactive) | 16.8 µM (inactive) | 19.1 µM (inactive) | 14.9 µM (inactive) | 13.6 µM (inactive) | 18 µM (inactive) | 19.3 µM (inactive) | 20 µM (inactive) | 3.27 µM (inactive) | 16.1 µM (inactive) | 18.1 µM (inactive) | 21.7 µM (inactive)
CC1CCCN(CP(=O)(c2ccccc2)c2ccccc2)C1 (stereo not given) | > 100 µM (inactive) | > 100 µM (inactive) | > 100 µM (inactive) | > 100 µM (inactive) | > 100 µM (inactive) | > 100 µM (inactive) | > 100 µM (inactive) | > 100 µM (inactive) | > 100 µM (inactive) | > 100 µM (inactive) | 94.4 µM (inactive) | > 100 µM (inactive) | > 100 µM (inactive) | > 100 µM (inactive) | > 100 µM (inactive) | > 100 µM (inactive) | > 100 µM (inactive) | > 100 µM (inactive) | > 100 µM (inactive) | > 100 µM (inactive)
COc1ccc(Cc2cc(OC)c(OC)c(OC)c2)cc1 | 0.224 µM (active) | 0.771 µM (active) | 0.254 µM (active) | 0.203 µM (active) | 0.215 µM (active) | 0.0245 µM (active) | 0.417 µM (active) | 0.411 µM (active) | 0.429 µM (active) | 0.146 µM (active) | 10.6 µM (inactive) | 0.805 µM (active) | 0.143 µM (active) | 0.479 µM (active) | 0.509 µM (active) | 0.19 µM (active) | 0.0436 µM (active) | 0.234 µM (active) | 0.167 µM (active) | 0.109 µM (active)
C=CC[C@@]1([C@H](C=C)COCc2ccc(OC)cc2)CC[C@]2(C)OC(C)(C)[C@@H](c3ccccc3)N2C1=S | 95.3 µM (inactive) | 43 µM (inactive) | > 100 µM (inactive) | 31.1 µM (inactive) | 52.2 µM (inactive) | 49.5 µM (inactive) | 60.8 µM (inactive) | 35.3 µM (inactive) | 58.6 µM (inactive) | > 100 µM (inactive) | 40.7 µM (inactive) | 30 µM (inactive) | 19.1 µM (inactive) | 57.1 µM (inactive) | 34.8 µM (inactive) | 20.9 µM (inactive) | 73.5 µM (inactive) | 31.4 µM (inactive) | 25.2 µM (inactive) | 53 µM (inactive)
C#C/C=C/CC1OC(C(Br)CC)CC(Br)C2CC1O2 (stereo not given) | > 100 µM (inactive) | 39.4 µM (inactive) | > 100 µM (inactive) | 40.2 µM (inactive) | 87.9 µM (inactive) | 80.5 µM (inactive) | 68.7 µM (inactive) | > 100 µM (inactive) | 7.69 µM (inactive) | 19.1 µM (inactive) | 37.8 µM (inactive) | 22.8 µM (inactive) | 82 µM (inactive) | 42.1 µM (inactive) | > 100 µM (inactive) | 2.58 µM (inactive) | 34.6 µM (inactive) | 45.6 µM (inactive) | 89.3 µM (inactive) | 34.8 µM (inactive)
CCOc1cccc(-c2cc(O)c3cc4c(cc3n2)OCO4)c1 | 0.13 µM (active) | 0.51 µM (active) | 0.2 µM (active) | 0.673 µM (active) | 0.163 µM (active) | 0.0214 µM (active) | 0.378 µM (active) | 0.371 µM (active) | 0.197 µM (active) | 0.0828 µM (active) | 82 µM (inactive) | 0.264 µM (active) | 0.206 µM (active) | 1.66 µM (inactive) | 1.95 µM (inactive) | 0.0914 µM (active) | 0.0476 µM (active) | 0.112 µM (active) | 0.0505 µM (active) | 0.0573 µM (active)
COc1ccc2c(c1)OC(c1cccnc1)C(c1ccccc1)C2=O (stereo not given) | > 100 µM (inactive) | > 100 µM (inactive) | > 100 µM (inactive) | > 100 µM (inactive) | 54 µM (inactive) | > 100 µM (inactive) | > 100 µM (inactive) | > 100 µM (inactive) | 86.1 µM (inactive) | > 100 µM (inactive) | > 100 µM (inactive) | 49.5 µM (inactive) | > 100 µM (inactive) | > 100 µM (inactive) | > 100 µM (inactive) | > 100 µM (inactive) | > 100 µM (inactive) | > 100 µM (inactive) | > 100 µM (inactive) | > 100 µM (inactive)
Cc1cc(C)c2c(n1)S(=O)(=O)N(CCCN1CCN(c3cccc(C(F)(F)F)c3)CC1)c1c-2nn(C)c1C | > 100 µM (inactive) | > 100 µM (inactive) | 43.1 µM (inactive) | 38.5 µM (inactive) | > 100 µM (inactive) | 39.9 µM (inactive) | 65.6 µM (inactive) | 43.9 µM (inactive) | > 100 µM (inactive) | 53.3 µM (inactive) | 75.3 µM (inactive) | 45.3 µM (inactive) | 26.1 µM (inactive) | 60 µM (inactive) | 32.5 µM (inactive) | 57.4 µM (inactive) | 19.4 µM (inactive) | 25.9 µM (inactive) | 23.1 µM (inactive) | > 100 µM (inactive)
